Test results from PMC11435217, “In Vitro Studies of Genistein Lipophilic Derivatives as Potential UV Radiation Protectors” (Pharmaceuticals, 2024).
Read-outs that look alike come from different tables or passages of the source.

How the values were obtained:
[1] = Protective potential against UV irradiation, MTS assay, Me45; type: cell-based; conditions: human
Protocol: Cells from each cell line were seeded in three groups (0, 24, and 48 h) in 96-well plates (5 × 10^3 cells/well) and incubated for 24 h at 37 °C in 5% CO2. Afterwards, the medium in all wells was removed, and cells were treated with 5 µM of genistein, 4′-L-Gen, W-Bn-Gen, or W5-Gen. The chemicals added to the 0 h time point plates were dissolved in PBS. DMEM was used to prepare the chemical solutions for the 24- and 48-h plates.
After incubation, half of the wells on each plate were irradiated with UVC 2 kJ/m^2 in a Crosslinker CL-1000 UV (UVP) device (Ultra-Violet Products Ltd., Cambridge, UK). The MTS assay was performed immediately after irradiation for 0 h plates and after 24 and 48 h of incubation for the other two time points. Before conducting the MTS test, the medium in the 24 and 48 h plates was discarded and replaced with PBS.

[2] = Lipophilicity (Log P); type: physicochemical
Excerpt: Table 2 Genistein and its derivatives investigated in the study. | column: Log P

[3] = test system: Me45 cells; experiment: Cell cycle analysis (flow cytometry, PI), Me45; type: cell-based, human; conditions: 5 µM, 48 h, not exposed to UV
Protocol: (§1) Cells from both cell lines were seeded in 12-well plates (2.5 × 10^4 cells/well) and incubated for 24 h at 37 °C in 5% CO2. The medium in the wells was replaced with fresh DMEM. Cells were treated with 5 µM of genistein, 4′-L-Gen, W5-Gen, or WBn-Gen for 48 h. Medium containing the test substances was removed, and the cells were collected by trypsinization (followed by neutralization of trypsin with medium) in Eppendorf tubes. Tubes were centrifuged (2000 rpm, 3 min), and the supernatant was removed. Subsequently, the fixation of cells in frozen 96% ethanol took place. The ethanol was removed, and cells were washed twice in PBS. Cells were suspended in tubes using 50 µL of […] RNase and then incubated for 15 min at room temperature. Cells were stained with […] propidium iodide solution in PBS and incubated for 20 min at room temperature. Directly before flow cytometry analysis, cells were agitated on a vortex mixer. Cell cycle analysis was performed using a BD FACS Canto flow cytometer, which counted 10,000 cells from every probe. The number of cells in each cell cycle phase was counted by measuring the […] intensity using Diva software (Bd FACSDiva v9.0, Becton Dickinson, Franklin Lakes, NJ, USA).

[4] = test system: NHDF (normal human dermal fibroblasts); experiment: Determination of EC50 values, MTS assay, NHDF; type: cell-based; conditions: read-out: EC50 (±SE)
Protocol: (§2) NHDFs were purchased from Lonza Group Ltd.—Lonza Verviers (Verviers, Belgium), and the human malignant melanoma (Me45) cell line was obtained from the Maria Skłodowska-Curie Memorial Cancer Center and National Institute of Oncology Branch Gliwice, Poland. […] During the culturing periods, cells were passaged before confluency reached 80% in culture flasks and washed regularly with PBS.
(§3) The EC50 values of genistein and its derivatives for both cell lines were determined using the MTS assay (Cell Titer 96 AQueous One Solution Cell Proliferation Assay, Promega, Madison, WI, USA). Cells were seeded in 96-well plates (5 × 10^3 cells/well) and incubated for 24 h at 37 °C in 5% CO2. Subsequently, the cells were treated with twelve concentrations of each compound ranging from 1–100 µM for 48 h at 37 °C in 5% CO2. Afterwards, the medium, including the investigated compounds, was removed from all wells and replaced with PBS. In total, 20 µL of MTS was added to each well. Plates were then incubated for 2 h at 37 °C in 5% CO2. The absorbance was measured at λ = 490 nm using an Epoch microplate reader (BioTek, Winooski, VT, USA). EC50 values were calculated using Matlab software (Matlab R2022a, MathWorks, Natick, MA, USA).

[5] = test system: Me45 (human malignant melanoma cell line); experiment: Determination of EC50 values, MTS assay, Me45; type: cell-based; conditions: read-out: EC50 (±SE)
Protocol: as §2, §3

[6] = test system: Me45 cells; experiment: Genotoxicity, micronucleus (MN) assay, Me45; type: cell-based, human; conditions: 5 µM, 48 h, exposed and not exposed to UV radiation
Protocol: (§4) Both cell types were seeded in 6-well plates (2.5 × 10^4 cells/well) and incubated for 24 h at 37 °C in 5% CO2. After incubation, the medium in the wells was changed to 5 µM solutions of genistein, 4′-L-Gen, W-Bn-Gen, or W5-Gen in DMEM and incubated for 1 h at 37 °C in 5% CO2. Half of the treated cells were irradiated, as described above. Afterwards, all the cells were treated with […] cytochalasin B and incubated for 48 h at 37 °C in 5% CO2. Subsequently, cells from each well were trypsinized, washed twice in PBS, and mixed with frosted (−20 °C) Carnoy’s solution (methanol: acetic acid, v/v 3:1). After 2 h, 50 µL of each suspension was placed on a microscopic slide and dried. Before microscopic analysis, slides were stained with 2 µg/mL DAPI (dissolved in DMSO) and covered with cover glasses. Slides were observed using a fluorescent microscope (Zeiss Axio Imager. M1 with EC Plan- NEOFLUAR 40× objective, Zeiss, Oberkochen, Germany). A total of 500 cells on each slide were counted, taking into account binucleated, binucleated with MN, mononucleated, and apoptotic cells. The NDI was calculated using a modified method by Eastmond and Tucker (1989) according to the following Equation (2):(2) NDI=MNu+2(Bnu+BNuMN)/∑cells where MNu is the number of cells with one nucleus, BNu is the number of binucleated cells, and BNuMN is the number of binucleated cells with MN.

[7] = test system: NHDFs; experiment: Genotoxicity, micronucleus (MN) assay, NHDF; type: cell-based, human; conditions: 5 µM, 48 h
Protocol: as §4

[8] = test system: estrogen receptors ERα and ERβ; conditions: cited from earlier work
[9] = test system: NHDFs; experiment: Cell cycle analysis (flow cytometry, PI), NHDF; type: cell-based, human; conditions: 5 µM, 48 h, not exposed to UV
Protocol: as §1

[10] = 48 h treatment, 1–100 µM, concentration causing 50% toxicity
[11] = Me45, 48 h treatment, 1–100 µM, concentration causing 50% toxicity

| SMILES | mortality at 0 h, 5 µM [1] | viability at 48 h, 5 µM ([1]; Me45, 5 µM, after 48 h, both exposed and not exposed to UV radiation, read-out: viability of treated cells much lower than in the control samples) | logP [2] | suppression of the G1 phase, ranking (in words) [3] | EC50 ([4]; 48 h) | EC50 ([5]; 48 h) | EC50 [4, 10] | EC50 [5, 11] | effect on number of cells with MN (in words) [6] | mortality at 0 h, 5 µM ([1]; Me45, 5 µM, shortest incubation (first time point, before the 24 h reading), read-out: mortality compared to control untreated cells) | logP ([2]; method not stated, read-out: Log P) | effect on number of cells with MN (in words) ([7]; NHDF) | binding to ERβ versus ERα, times more strongly [8] | suppression of the cell cycle in the G2/M phase, cells compared to the controls [9] | DNA damage (percentage of binucleated cells with MN) ([7]; human) |
| --- | --- | --- | --- | --- | --- | --- | --- | --- | --- | --- | --- | --- | --- | --- | --- |
| CCCCCCCCCCCC(=O)Oc1ccc(-c2coc3cc(O)cc(O)c3c2=O)cc1 [4′-L-Gen, 4′-genistein dodecanate] | ~10% | ~50% | 5.71 | weakest effect | 6.5 µM | 60.5 µM | – | – | – | – | – | – | – | – | – |
| CCCCCOC(=O)Oc1cc(O)c2c(=O)c(-c3ccc(O)cc3)coc2c1 [Compound W5-Gen, n-pentyl-7-O-genistein carbonate] | – | – | 3.96 | – | – | – | 5.6 µM | 92.2 µM | – | – | – | – | – | – | – |
| O=c1c(-c2ccc(O)cc2)coc2cc(O)cc(O)c12 [Gen, Genistein] | – | – | – | strongest effect | 8.6 µM | 78.2 µM | – | – | increases the number of cells with MN | 50% | 1.74 | decreased the number of cells with MN | 20–30 times | – | – |
| O=C(OCc1ccccc1)Oc1cc(O)c2c(=O)c(-c3ccc(O)cc3)coc2c1 [WBn-Gen, bezyl-7-O-genistein carbonate] | – | – | 4.04 | – | – | – | 6 µM | 71.2 µM | – | – | – | – | – | 6% | 10.5–11% |
